Measurements published in ChEMBL document CHEMBL1140252, “Deoxyribosyl analogues of methionyl and isoleucyl sulfamate adenylates as inhibitors of methionyl-tRNA and isoleucyl-tRNA synthetases” (Bioorg Med Chem Lett, 2005).

Legend:
Isoleucine--tRNA ligase = Isoleucine--tRNA ligase (Escherichia coli K-12, UniProt P00956); experiment: Inhibitory concentration against Escherichia coli Ile-tRNA synthetase
Methionine--tRNA ligase = Methionine--tRNA ligase (Escherichia coli K-12, UniProt P00959); experiment: Inhibitory concentration against Escherichia coli Met-tRNA synthetase
Methionine--tRNA ligase, sequence (P00959 whole entry): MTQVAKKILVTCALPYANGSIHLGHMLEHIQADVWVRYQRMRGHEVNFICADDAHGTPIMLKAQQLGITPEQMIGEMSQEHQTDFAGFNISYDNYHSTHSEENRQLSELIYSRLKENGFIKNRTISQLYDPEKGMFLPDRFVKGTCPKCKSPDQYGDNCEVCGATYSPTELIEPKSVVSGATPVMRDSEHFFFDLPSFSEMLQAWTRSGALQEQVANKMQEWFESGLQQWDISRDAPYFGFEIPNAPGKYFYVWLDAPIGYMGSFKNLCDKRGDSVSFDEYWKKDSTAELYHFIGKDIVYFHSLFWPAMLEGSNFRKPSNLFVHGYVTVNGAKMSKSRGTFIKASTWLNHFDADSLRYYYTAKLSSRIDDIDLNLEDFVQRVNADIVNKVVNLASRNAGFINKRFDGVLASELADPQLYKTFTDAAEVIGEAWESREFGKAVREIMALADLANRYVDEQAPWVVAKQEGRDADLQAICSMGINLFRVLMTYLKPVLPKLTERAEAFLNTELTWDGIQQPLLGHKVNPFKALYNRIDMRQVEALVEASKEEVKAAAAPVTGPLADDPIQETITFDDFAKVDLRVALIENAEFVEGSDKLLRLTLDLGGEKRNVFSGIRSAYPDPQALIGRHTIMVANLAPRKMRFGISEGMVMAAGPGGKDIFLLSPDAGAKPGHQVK

Isoleucine--tRNA ligase, sequence (P00956 whole entry): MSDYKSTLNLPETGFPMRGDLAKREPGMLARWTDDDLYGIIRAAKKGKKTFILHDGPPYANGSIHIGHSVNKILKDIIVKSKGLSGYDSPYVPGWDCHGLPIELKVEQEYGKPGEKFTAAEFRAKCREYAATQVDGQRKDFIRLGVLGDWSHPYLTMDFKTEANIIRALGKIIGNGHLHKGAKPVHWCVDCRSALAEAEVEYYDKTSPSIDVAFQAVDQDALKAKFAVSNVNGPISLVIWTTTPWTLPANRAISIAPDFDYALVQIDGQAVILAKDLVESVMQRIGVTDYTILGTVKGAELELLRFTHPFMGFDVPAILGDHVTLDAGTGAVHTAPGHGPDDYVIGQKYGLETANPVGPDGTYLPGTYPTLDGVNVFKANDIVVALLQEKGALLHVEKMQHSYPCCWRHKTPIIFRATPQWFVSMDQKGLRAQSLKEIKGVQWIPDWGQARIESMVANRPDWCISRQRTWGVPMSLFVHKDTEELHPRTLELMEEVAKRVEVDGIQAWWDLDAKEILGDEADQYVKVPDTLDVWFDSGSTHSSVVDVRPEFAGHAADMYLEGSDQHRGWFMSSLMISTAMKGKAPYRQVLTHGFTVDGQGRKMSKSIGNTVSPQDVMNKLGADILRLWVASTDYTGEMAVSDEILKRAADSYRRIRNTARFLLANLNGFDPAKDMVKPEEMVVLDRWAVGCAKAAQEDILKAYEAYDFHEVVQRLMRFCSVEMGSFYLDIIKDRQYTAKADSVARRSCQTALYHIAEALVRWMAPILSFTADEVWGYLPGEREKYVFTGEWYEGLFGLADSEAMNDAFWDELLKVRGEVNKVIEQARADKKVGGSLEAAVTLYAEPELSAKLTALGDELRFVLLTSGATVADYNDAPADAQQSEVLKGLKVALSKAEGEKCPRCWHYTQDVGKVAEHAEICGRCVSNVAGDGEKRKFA

## CC[C@H](C)[C@H](N)C(=O)NS(=O)(=O)OC[C@@H]1CC[C@H](n2cnc3c(N)ncnc32)O1
Isoleucine--tRNA ligase
  IC50: 6.4 µM

## CSCC[C@H](N)C(=O)NS(=O)(=O)O[C@@H]1CC[C@H](n2cnc3c(N)nnnc32)O1
Methionine--tRNA ligase
  IC50: 0.383 µM

## CSCC[C@H](N)C(=O)NS(=O)(=O)OC[C@H]1O[C@@H](n2cnc3c(N)ncnc32)[C@H](O)[C@@H]1O
Methionine--tRNA ligase
  IC50: 0.083 µM

## CC[C@H](C)[C@H](N)C(=O)NS(=O)(=O)OC[C@H]1O[C@@H](n2cnc3c(N)ncnc32)[C@H](O)[C@@H]1O
Isoleucine--tRNA ligase
  IC50: 0.265 µM

## CSCC[C@H](N)C(=O)NS(=O)(=O)OC[C@H]1O[C@@H](n2cnc3c(N)ncnc32)C[C@@H]1O
Methionine--tRNA ligase
  IC50: 110 µM

## CC[C@H](C)[C@H](N)C(=O)NS(=O)(=O)OC[C@@H]1C[C@@H](O)[C@H](n2cnc3c(N)ncnc32)O1
Isoleucine--tRNA ligase
  IC50: 35 µM

## CSCC[C@H](N)C(=O)NS(=O)(=O)OC[C@@H]1C[C@@H](O)[C@H](n2cnc3c(N)ncnc32)O1
Methionine--tRNA ligase
  IC50: 220 µM

## CC[C@H](C)[C@H](N)C(=O)NS(=O)(=O)O[C@H]1O[C@@H](n2cnc3c(N)ncnc32)C[C@@H]1O
Isoleucine--tRNA ligase
  IC50: 280 µM
